For this test, the system named is NQO1 specific enzyme activity in BEAS-2B cells. Briefly: BEAS-2B NQO1 MTT assay. In kind it is cell-based. The settings on record: read-out: EC50 of NQO1 specific activity induction. The source says: NAD(P)H:quinone oxidoreductase 1 (NQO1), also called DT diaphorase, is a homodimeric FAD-containing enzyme that catalyzes obligatory NAD(P)H-dependent two-electron reductions of quinones and protects cells against the toxic and neoplastic effects of free radicals and reactive oxygen species arising from one-electron reductions. The transcription of NQO1 is finely regulated by NRF2, and thus NQO1 activity is a good marker for NRF2 activation. On day one, frozen BEAS-2B cells (ATCC) are thawed in a water bath, counted, and re-suspended at a concentration of 250,000 cells/mL. Fifty microliters of cells are plated in 384 well black clear-bottomed plates. Plates are incubated at 37° C., 5% CO2 overnight. On day two, plates are centrifuged and 50 nL of compound or controls are added to the cells. Plates are then incubated at 37° C., 5% CO2 for 48 hours. On day four, medium is aspirated from the plate and crude cell lysates are made by adding 13 uL of 1× Cell Signaling Technologies lysis buffer with 1 Complete, Mini, EDTA-free Protease Inhibitor Tablet (Roche) for each 10 mL of lysis buffer. After lysis plates are incubated for 20 minutes at room temperature. Two microliters of lysate are removed for use in Cell Titer Glo assay (Promega) and MTT cocktail is prepared (Prochaska et. al. 1998) for measurement of NQO1 activity. Fifty microliters of MTT cocktail is added to each well, plate is centrifuged, and analyzed on an Envision plate reader (Perkin Elmer) using Absorbance 570 nm label for 30 minutes. Product formation is measured kinetically and the EC50 of NQO1 specific activity induction is calculated by plotting the change in absorbance (Delta OD/min) versus the log of compound concentration followed by 3-parameter fitting.

Setting [1] is: Homo sapiens, BEAS-2B, 48 h, BEAS-2B cells, 48 hours with compound, MTT readout.
[2] abbreviates: BEAS-2B cells, 48 hours with compound, MTT readout.

Structures are written as SMILES. Counter-ions that a name gives are not always drawn. Like-named read-outs stand apart in the source and are kept apart here. Bounds are passed on as bounds.

Usually EC50 stands for the midpoint of the concentration-response curve.

For `Cc1ccc([C@@H](CC(=O)O)c2ccc3c(nnn3C)c2C)cc1CN1Cc2cccc(F)c2OC(C)(C)C1` [Example 177, (R)-3-(1,4-Dimethyl-1H-benzo[d][1,2,3]triazol-5-yl)-3-(3-((9-fluoro-2,2-dimethyl-2,3-dihydrobenzo[f][1,4]oxazepin-4(5H)-yl)methyl)-4-methylphenyl)propanoic acid], the 50% effective concentration (EC50) under setting [1] fell in the range of 10 to 100 nM.

`CC[C@@H]1CN(Cc2cc(C(c3ccc4c(nnn4C)c3C)C(C)(C)C(=O)O)cnc2C)Cc2cnccc2O1` (stereo partly drawn) [Example 213, 3-(1,4-Dimethyl-1H-benzo[d][1,2,3]triazol-5-yl)-3-(5-(((R)-2-ethyl-2,3-dihydropyrido[3,4-f][1,4]oxazepin-4(5H)-yl)methyl)-6-methylpyridin-3-yl)-2,2-dimethylpropanoic acid, Trifluoroacetic Acid Salt]: under setting [1], the 50% effective concentration (EC50) is 100 to 1000 nM.

As to `CC[C@@H]1CN(Cc2cc(C(CCc3cn(CC)nn3)C(C)(C)C(=O)O)ccc2C)Cc2cccnc2O1` (stereo partly drawn) [Example 217, 5-(1-Ethyl-1H-1,2,3-triazol-4-yl)-3-(3-(((R)-2-ethyl-2,3-dihydropyrido[3,2-f][1,4]oxazepin-4(5H)-yl)methyl)-4-methylphenyl)-2,2-dimethylpentanoic Acid], under setting [1], the EC50 was 10 to 100 nM.

Consider `Cc1ccc(C(c2ccc3c(nnn3C)c2C)C(C)(C)C(=O)O)cc1Cn1ccnc1CN1CCCCCC1` (stereo not shown) [Example 151, 3-(3-((2-(Azepan-1-ylmethyl)-1H-imidazol-1-yl)methyl)-4-methylphenyl)-3-(1,4-dimethyl-1H-benzo-[d][1,2,3]triazol-5-yl)-2,2-domethylpropanoic acid, 0.3 formic acid salt], for which the EC50 (BEAS-2B cells, 48 hours with compound, MTT readout, formic acid salt) was 1 to 10 nM.

As for `COc1ccc(C2COCCN2Cc2cc(C(CC(=O)O)c3ccc4c(nnn4C)c3C)ccc2C)cc1` (stereo not shown) [Example 21, 3-(1,4-dimethyl-1H-benzo[d][1,2,3]triazol-5-yl)-3-(3-((3-(4-methoxyphenyl)morpholino)methyl)-4-methylphenyl)propanoic acid, formic acid salt], the concentration giving a half-maximal response (EC50) under setting [1] is 1000 to 10000 nM.

Consider `Cc1ccc(C(CC(=O)O)c2ccc3c(nnn3C)c2C)cc1CN1Cc2ncccc2OC(C)(C)C1` (stereo in doubt) [Example 170, (S)-3-(1,4-Dimethyl-1H-benzo[d][1,2,3]triazol-5-yl)-3-(3-((2,2-dimethyl-2,3-dihydropyrido[2,3-f][1,4]oxazepin-4(5H)-yl)methyl)-4-methylphenyl)propanoic acid, 0.5 Formlc acid salt], for which the EC50 under setting [2] fell in the range of 10 to 100 nM.

For the molecule `CC[C@@H]1CN(Cc2cc([C@@H](c3ccc4c(nnn4C)c3C)C(C)(C)C(=O)O)ccc2C)Cc2cnccc2O1` [Example 24, (S)-3-(1,4-Dimethyl-1H-benzo[d][1,2,3]triazol-5-yl)-3-(3-(((R)-2-ethyl-2,3-dihydropyrido[3,4-f][1,4]oxazepin-4(5H)-yl)methyl)-4-methylphenyl)-2,2-dimethylpropanoic Acid, Formic Acid Salt], the concentration for a half-maximal effect (EC50) (Homo sapiens, BEAS-2B, 48 h) was less than 1 nM.

Turning to `Cc1ccc(C(CC(=O)O)c2ccc3c(nnn3C)c2C)cc1CN1Cc2ccccc2CC(C)(C)C1` (stereo not shown) [Example 105, Ammonium 3-(1,4-dimethyl-1H-benzo[d][1,2,3]triazol-5-yl)-3-(3-((4,4-dimethyl-4,5-dihydro-1H-benzo[c]azepin-2(3H)-yl)methyl)-4-methylphenyl)propanoate], the EC50 under setting [1] is 10 to 100 nM.

On to `Cc1ccc(C(CC(=O)O)c2ccc3c(nnn3C)c2C)cc1Cn1nc(CC2CCCCC2)nc1C` (stereo not shown) [Example 137, 3-(3-((3-(Cyclohexylmethyl)-5-methyl-1H-1,2,4-triazol-1-yl)methyl)-4-methylphenyl)-3-(1,4-dimethyl-1H-benzo[d][1,2,3]triazol-5-yl)propanoic Acid], for which, under setting [1], the EC50 lay in the range of 100 to 1000 nM.

Turning to `CC[C@@H]1CN(Cc2cc([C@H](c3ccc4c(nnn4CC)c3C)[C@H](C)C(=O)O)ccc2C)Cc2ccccc2O1` [Example 199, (2S,3R)-3-(3-(((R)-2-Ethyl-2,3-dihydrobenzo[f][1,4]oxazepin-4(5H)-yl)methyl)-4-methylphenyl)-3-(1-ethyl-4-methyl-1H-benzo[d][1,2,3]triazol-5-yl)-2-methylpropanoic acid], the half-maximal effective concentration (EC50) under setting [2] is 10 to 100 nM.

For the origin of these results see patent US10604509B2, “Nrf2 regulators” (GlaxoSmithKline Intellectual Property Development Limited, priority 2015, dated 2020).
